Measurements from ChEMBL document CHEMBL1155258, “Computational selection of inhibitors of Abeta aggregation and neuronal toxicity” (Bioorg Med Chem, 2009).
Activity calls are given as the source filed them. The rule behind the calls is not given here.

Tests used:
[1] = Inhibition of amyloid beta (1-42) self-aggregation at 4uM after 24 hrs by sedimentation assay with ELISA
[2] = tested on: N2a; experiment: Neurotoxicity against mouse N2A cells after 24 hrs by MTS assay; type: toxicity, cell-based
[3] = Inhibition of amyloid beta (1-42) self-aggregation after 24 hrs by sedimentation assay with ELISA
[4] = Inhibition of amyloid beta (1-42) fibril formation after 24 hrs by thioflavin T fluorescence method
[5] = tested on: N2a; experiment: Neuroprotective activity against amyloid beta-induced neurotoxicity in mouse N2A cells after 24 hrs by MTS assay; type: functional, cell-based

Structure (SMILES) | inhibition [1] | Activity [2] | IC50 [3] | Activity [4] | Activity [5]
CNc1ccc(C(=O)NC(CCCCNC(=O)OCc2ccccc2)C(=O)O)cc1 (centres undefined) | 80% | Non-toxic | 2750 nM | – | –
O=C(Cc1ccccc1)NC(CSSCC(NC(=O)Cc1ccccc1)C(=O)O)C(=O)O (centres undefined) | 80% | Non-toxic | 1950 nM | – | –
COC(=O)C[C@](O)(CCC(C)(C)O)C(=O)O[C@@H]1C(OC)=C[C@]23CCCN2CCc2cc4c(cc2[C@H]13)OCO4 [HARRINGTONINE] | – | Non-toxic | – | inactive | inactive
